Source: patent US10053457B2, “Hydroxyalkyl-piperazine derivatives as CXCR3 receptor modulators” (IDORSIA PHARMACEUTICALS LTD, priority 2015, dated 2018)

Legend:
Type in all cases: cell-based
hERG K channel = hERG K channel (Homo sapiens (Human), UniProt Q12809); test: hERG Q-Patch assay; details: CHO cells expressing hERG, K+ tail current 3 min after application, mean of two or three experiments
Procedure: Compounds are evaluated for block of the hERG K channel using CHO cells stably expressing the hERG gene (accession number U04270, bSys, Witterswil, Switzerland) and the QPatch robotic platform (Sophion, Ballerup, Denmark) in single-cell mode at room temperature. Cells are grown in culture flasks at 37° C. in 5% CO2, in culture medium (Ham's F-12 Nutrient Mixture, Invitrogen 21765-029) supplemented with 9% (v/v) fetal calf serum, 0.9% Penicillin/Streptomycin (10,000 U/mL, Invitrogen 15140148), 100 μg/mL Hygromycin B (Invitrogen 10687010). When the cells are ˜80% confluent (every 2-3 days), they are either split for further culture or used for electrophysiology. For further culture, cells are detached with 0.25% Trypsin EDTA solution (Invitrogen 25200-056) and a fraction of the cells (10-30%) is reseeded in culture medium. For electrophysiology, on the experimental day, cells are detached with 0.25% Trypsin EDTA solution and all cells are suspended in suspension medium (293 SFM II, Invitrogen 11686-029) supplemented with 20 mM HEPES and 0.04 mg/mL Trypsin inhibitor. Cells are kept in suspension medium at 32-35° C. in the QPatch robot until use, at which time aliquots are transferred to the extracellular solution (in mM: NaCl 150; KCl 4; CaCl2 1.2; MgCl2 1; HEPES 10; pH 7.4 with NaOH) containing 0.3% v/v DMSO and applied to the test plates. K^+ currents are measured with the patch-voltage-clamp technique in the whole-cell configuration with the internal solution (in mM: KCl, 140; NaCl, 10; MgCl2, 1; HEPES, 10: EGTA, 5; pH=7.2 with KOH). Currents are low-pass filtered using the internal Bessel filter of the QPatch robot with a cut-off frequency of 2 kHz and are digitized at 10 kHz. K^+ tail currents are produced from a holding voltage of −80 mV by a 500-ms depolarization to +20 mV followed by a 500-ms repolarization to −40 mV; tail current amplitudes are measured at the end of the repolarization to −40 mV. The pulse pattern is repeated every 10 sec during the experiment, baseline K^+ current is measured after 3 min in extracellular solution, test-solution containing compound is then applied, and K^+ current in presence of compound is measured 3 minutes after application to the cells. The respective test-solution is prepared by (1) dissolving the test-compound in pure DMSO, (2) diluting this DMSO solution in extracellular solution, and (3) adding further DMSO, such that the final test-solution has a concentration of either 300 nM or 3000 nM of the test-compound and contains 0.3% v/v DMSO. Compound effects are quantified as % block by dividing the current in presence of compound by the baseline current; two or three experiments are performed for each compound and the final value represents the mean of the results of each experiment.

human CXCR3A = human CXCR3A (Homo sapiens (Human), UniProt P49682); test: FLIPR assay (CXCL10-induced calcium signal); details: CHO-K1 cells expressing human CXCR3A coupled to Galpha(16); CXCL10 agonist 20 nM; mean values
Text: (§1) In the case where IC50 values have been determined several times for the same compound, mean values are given.

CXCR3 = CXCR3 (Homo sapiens (Human), UniProt P49682); test: Receptor internalization assay in human whole blood (CXCR3 surface expression on CD4 positive cells, CXCL10); details: final CXCL10 9 nM, 30 min at 37° C., mean values
Procedure: Diluted compounds are then mixed with an equal volume of CXCL10 (Peprotech) diluted in PBS. Anticoagulated venous human whole blood is added to the mixture, which is then incubated in a CO2 incubator at 37° C. to allow for ligand mediated receptor internalization (final CXCL10 concentration is 9 nM). After 30 min, the blood is mixed with fluorescently labeled CXCR3 and CD4 specific antibodies (Becton Dickinson) and incubated on ice for 10 minutes. Samples are then mixed with BD FACS Lysing Solution (Becton Dickinson) in order to eliminate red blood cells. After washing the cells with PBS containing 0.5% BSA, the samples are then analyzed in a flow cytometer (FACS Canto II, Becton Dickinson). For data analysis using FACSDiva software (Becton Dickinson), the mean fluorescence corresponding to CXCR3 cell surface expression was determined on CD4 positive cells. The program GraphPad Prism or similar software is used to fit the data to a single site dose response curve and to calculate IC50 values.
as §1

hERG K channel, sequence (Q12809 whole entry): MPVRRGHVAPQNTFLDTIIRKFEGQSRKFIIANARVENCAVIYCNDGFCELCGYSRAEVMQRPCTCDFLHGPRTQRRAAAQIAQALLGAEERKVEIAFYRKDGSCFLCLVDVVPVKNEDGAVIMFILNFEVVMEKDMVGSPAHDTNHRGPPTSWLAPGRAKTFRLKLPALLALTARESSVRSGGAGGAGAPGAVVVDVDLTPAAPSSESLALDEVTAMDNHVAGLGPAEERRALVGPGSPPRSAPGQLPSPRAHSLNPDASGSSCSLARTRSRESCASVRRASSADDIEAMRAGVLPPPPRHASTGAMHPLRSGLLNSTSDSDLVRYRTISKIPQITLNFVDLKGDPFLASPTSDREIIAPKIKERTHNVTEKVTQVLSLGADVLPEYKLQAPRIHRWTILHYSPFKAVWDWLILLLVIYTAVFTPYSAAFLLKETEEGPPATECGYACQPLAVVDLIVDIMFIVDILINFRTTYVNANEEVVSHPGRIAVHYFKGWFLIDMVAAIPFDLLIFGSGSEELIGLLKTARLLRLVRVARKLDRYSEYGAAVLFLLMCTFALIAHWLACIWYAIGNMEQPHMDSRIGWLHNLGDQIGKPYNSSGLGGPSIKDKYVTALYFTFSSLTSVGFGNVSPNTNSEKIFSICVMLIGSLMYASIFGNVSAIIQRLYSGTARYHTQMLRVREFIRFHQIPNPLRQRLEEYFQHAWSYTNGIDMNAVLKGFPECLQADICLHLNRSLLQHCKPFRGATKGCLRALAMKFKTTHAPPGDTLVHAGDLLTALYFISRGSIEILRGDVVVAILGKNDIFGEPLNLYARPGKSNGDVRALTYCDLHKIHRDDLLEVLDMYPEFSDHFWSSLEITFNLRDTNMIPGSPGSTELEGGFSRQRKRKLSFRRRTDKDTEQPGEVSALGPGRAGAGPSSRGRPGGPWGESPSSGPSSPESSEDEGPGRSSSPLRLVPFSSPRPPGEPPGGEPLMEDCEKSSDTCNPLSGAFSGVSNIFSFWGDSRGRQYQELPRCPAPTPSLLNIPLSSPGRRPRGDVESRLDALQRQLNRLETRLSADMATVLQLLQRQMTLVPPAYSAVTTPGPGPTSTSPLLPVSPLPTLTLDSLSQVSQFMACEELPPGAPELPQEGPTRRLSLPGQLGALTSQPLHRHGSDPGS
CXCR3, sequence (P49682 whole entry): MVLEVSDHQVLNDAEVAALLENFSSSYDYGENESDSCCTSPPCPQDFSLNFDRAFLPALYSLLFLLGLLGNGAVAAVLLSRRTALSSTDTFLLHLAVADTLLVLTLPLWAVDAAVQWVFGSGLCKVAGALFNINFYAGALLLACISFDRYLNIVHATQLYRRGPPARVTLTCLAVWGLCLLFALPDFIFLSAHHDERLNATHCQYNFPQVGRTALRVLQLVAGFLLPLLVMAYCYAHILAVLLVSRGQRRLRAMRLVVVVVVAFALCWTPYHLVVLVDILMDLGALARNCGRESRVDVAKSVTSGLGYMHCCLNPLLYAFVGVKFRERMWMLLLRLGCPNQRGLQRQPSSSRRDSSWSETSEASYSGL
human CXCR3A, sequence (P49682 whole entry): as above

| Structure (SMILES) | % block (hERG K channel; concentration 300 nM) | % block (hERG K channel; concentration 3000 nM) | IC50 (human CXCR3A) | IC50 (CXCR3) |
| --- | --- | --- | --- | --- |
| Cc1nc(C)n(CC(=O)N2CCN(c3sc(C(F)(F)F)nc3-c3cnc(C(F)(F)F)nc3)C[C@H]2CO)n1 [Example 2, 2-(3,5-Dimethyl-[1,2,4]triazol-1-yl)-1-{(S)-2-hydroxymethyl-4-[2-trifluoromethyl-4-(2-trifluoromethyl-pyrimidin-5-yl)-thiazol-5-yl]-piperazin-1-yl}-ethanone] | −3% | −4% | 6 nM | 463 nM |
| O=C(Cn1cnc(C(F)(F)F)n1)N1CCN(c2sc(C(F)(F)F)nc2-c2cnc(C(F)(F)F)nc2)C[C@H]1CO [Example 5, 1-{(S)-2-Hydroxymethyl-4-[2-trifluoromethyl-4-(2-trifluoromethyl-pyrimidin-5-yl)-thiazol-5-yl]-piperazin-1-yl}-2-(3-trifluoromethyl-[1,2,4]triazol-1-yl)-ethanone] | −2% | 7% | 4 nM | 328 nM |
| CCOc1ncc(-c2nc(C(F)(F)F)sc2N2CCN(C(=O)Cn3cnc(C(F)(F)F)n3)[C@H](CO)C2)cn1 [Example 6, 1-{(S)-4-[4-(2-Ethoxy-pyrimidin-5-yl)-2-trifluoromethyl-thiazol-5-yl]-2-hydroxymethyl-piperazin-1-yl}-2-(3-trifluoromethyl-[1,2,4]triazol-1-yl)-ethanone] | 13% | 23% | 4.6 nM | 778 nM |
| COCc1ncn(CC(=O)N2CCN(c3sc(C(F)(F)F)nc3-c3cnc(C(F)(F)F)nc3)C[C@H]2CCO)n1 [Example 37, 1-{(R)-2-(2-Hydroxy-ethyl)-4-[2-trifluoromethyl-4-(2-trifluoromethyl-pyrimidin-5-yl)-thiazol-5-yl]-piperazin-1-yl}-2-(3-methoxymethyl-[1,2,4]triazol-1-yl)-ethanone] | 4% | 9% | 5.7 nM | 393 nM |
| O=C(Cn1cnc(C2CC2)n1)N1CCN(c2sc(C(F)(F)F)nc2-c2cnc(C(F)(F)F)nc2)C[C@H]1CO [Example 3, 2-(3-Cyclopropyl-[1,2,4]triazol-1-yl)-1-{(S)-2-hydroxymethyl-4-[2-trifluoromethyl-4-(2-trifluoromethyl-pyrimidin-5-yl)-thiazol-5-yl]-piperazin-1-yl}-ethanone] | 0% | 12% | 3 nM | 191 nM |
| Cc1nc(C)n(CC(=O)N2CCN(c3sc(C(F)(F)F)nc3-c3cnc(C(F)(F)F)nc3)C[C@H]2CCO)n1 [Example 27, 2-(3,5-Dimethyl-[1,2,4]triazol-1-yl)-1-{(R)-2-(2-hydroxy-ethyl)-4-[2-trifluoromethyl-4-(2-trifluoromethyl-pyrimidin-5-yl)-thiazol-5-yl]-piperazin-1-yl}-ethanone] | 1% | 4% | 5.2 nM | 235 nM |
| O=C(Cn1ccc2cc(F)ccc21)N1CCN(c2sc(C(F)(F)F)nc2-c2cnc(C(F)(F)F)nc2)C[C@@H]1CO [Example 14, 2-(5-Fluoro-indol-1-yl)-1-{(R)-2-hydroxymethyl-4-[2-trifluoromethyl-4-(2-trifluoromethyl-pyrimidin-5-yl)-thiazol-5-yl]-piperazin-1-yl}-ethanone] | 14% | 62% | 0.7 nM | 199 nM |
| Cc1nc(C)n(CC(=O)N2CCN(c3sc(C(F)(F)F)nc3-c3cnc(C(F)(F)F)nc3)C[C@@H]2CO)n1 [Example 12, 2-(3,5-Dimethyl-[1,2,4]triazol-1-yl)-1-{(R)-2-hydroxymethyl-4-[2-trifluoromethyl-4-(2-trifluoromethyl-pyrimidin-5-yl)-thiazol-5-yl]-piperazin-1-yl}-ethanone] | 1% | 3% | 6.9 nM | 324 nM |
| CCc1ccn(CC(=O)N2CCN(c3sc(C(F)(F)F)nc3-c3cnc(C(F)(F)F)nc3)C[C@H]2CO)n1 [Example 43, 2-(3-Ethyl-pyrazol-1-yl)-1-{(S)-2-hydroxymethyl-4-[2-trifluoromethyl-4-(2-trifluoromethyl-pyrimidin-5-yl)-thiazol-5-yl]-piperazin-1-yl}-ethanone] | 5% | 25% | 1.2 nM | 40.3 nM |
| O=C(Cn1cnc2ccccc21)N1CCN(c2sc(C(F)(F)F)nc2-c2cnc(C(F)(F)F)nc2)C[C@@H]1CO [Example 13, 2-Benzoimidazol-1-yl-1-{(R)-2-hydroxymethyl-4-[2-trifluoromethyl-4-(2-trifluoromethyl-pyrimidin-5-yl)-thiazol-5-yl]-piperazin-1-yl}-ethanone] | 5% | 17% | 1.2 nM | 1050 nM |
| O=C(Cn1cnc(C2CCC2)n1)N1CCN(c2sc(C(F)(F)F)nc2-c2cnc(C(F)(F)F)nc2)C[C@H]1CCO [Example 29, 2-(3-Cyclobutyl-[1,2,4]triazol-1-yl)-1-{(R)-2-(2-hydroxy-ethyl)-4-[2-trifluoromethyl-4-(2-trifluoromethyl-pyrimidin-5-yl)-thiazol-5-yl]-piperazin-1-yl}-ethanone] | 4% | 38% | 5.5 nM | 157 nM |
| CC(C)c1ncn(CC(=O)N2CCN(c3sc(C(F)(F)F)nc3-c3ccc(C(F)(F)F)nc3)C[C@@H]2CO)n1 [Example 10, 1-{(R)-2-Hydroxymethyl-4-[2-trifluoromethyl-4-(6-trifluoromethyl-pyridin-3-yl)-thiazol-5-yl]-piperazin-1-yl}-2-(3-isopropyl-[1,2,4]triazol-1-yl)-ethanone] | 2% | 12% | 1.1 nM | 961 nM |
| CC(C)(C)c1ncn(CC(=O)N2CCN(c3sc(C(F)(F)F)nc3-c3cnc(C(F)(F)F)nc3)C[C@H]2CO)n1 [Example 1, 2-(3-tert-Butyl-[1,2,4]triazol-1-yl)-1-{(S)-2-hydroxymethyl-4-[2-trifluoromethyl-4-(2-trifluoromethyl-pyrimidin-5-yl)-thiazol-5-yl]-piperazin-1-yl}-ethanone] | 2% | 12% | 6.7 nM | 415 nM |
| O=C(Cn1cnc(-c2ccccc2)n1)N1CCN(c2sc(C(F)(F)F)nc2-c2cnc(C(F)(F)F)nc2)C[C@@H]1CO [Example 19, 1-{(R)-2-Hydroxymethyl-4-[2-trifluoromethyl-4-(2-trifluoromethyl-pyrimidin-5-yl)-thiazol-5-yl]-piperazin-1-yl}-2-(3-phenyl-[1,2,4]triazol-1-yl)-ethanone] | 6% | 41% | 42 nM | 3310 nM |
